Experimental data published in patent publication US11427567B2, “Imidazolyl pyrimidinylamine compounds as CDK2 inhibitors” (Incyte Corporation, priority 2019, dated 2022).
pIC50: −log10 of the molar value.

Molecular target: CDK2/Cyclin E1 (Homo sapiens (Human), UniProt P24941)
Assay: CDK2/Cyclin E1 HTRF enzyme activity assay (Example A)
Assay type: biochemical
Settings: 1 mM ATP
Protocol: Assays were conducted in white 384-well polystyrene plates in a final reaction volume of 8 μL. […] HTRF signals were read after 1 hour at room temperature on a PHERAstar FS plate reader (BMG Labtech). Data was analyzed with IDBS XLFit and GraphPad Prism 5.0 software using a three or four parameter dose response curve to determine IC50 for each compound.

| SMILES | pIC50 |
| --- | --- |
| CS(=O)(=O)N1CCC(Nc2ncc(C(F)(F)F)c(-c3cn(-c4cccc(-c5ccnc(N)c5)c4Cl)cn3)n2)CC1 [Example 96, 4-(1-(3-(2-Aminopyridin-4-yl)-2-chlorophenyl)-1H-imidazol-4-yl)-N-(1-(methylsulfonyl)piperidin-4-yl)-5-(trifluoromethyl)pyrimidin-2-amine] | ≥ 7.30 |
| CCN(C)Cc1ccc(-n2cnc(-c3nc(NC4CCN(S(C)(=O)=O)CC4)ncc3C(F)(F)F)c2)c(Cl)c1 [Example 192] | ≥ 7.30 |
| CCc1ccc(-n2cnc(-c3nc(NC4CCN(S(C)(=O)=O)CC4)ncc3C(F)(F)F)c2)c(C(F)(F)F)n1 [Example 95, 4-(1-(6-Ethyl-2-(trifluoromethyl)pyridin-3-yl)-1H-imidazol-4-yl)-N-(1-(methylsulfonyl)piperidin-4-yl)-5-(trifluoromethyl) pyrimidin-2-amine] | ≥ 7.30 |
| CN1CCN(c2ccc(-n3cnc(-c4nc(NC5CCN(S(C)(=O)=O)CC5)ncc4C(F)(F)F)c3)c(Cl)c2)CC1=O [Example 142, 4-(3-Chloro-4-(4-(2-((1-(methyl-sulfonyl)piperidin-4-yl)amino)-5-(trifluoromethyl)-pyrimidin-4-yl)-1H-imidazol-1-yl)phenyl)-1-methylpiperazin-2-one] | ≥ 7.30 |
| C[C@@H]1CN(S(=O)(=O)C2CC2)CC[C@@H]1Nc1ncc(C(F)(F)F)c(-c2cn(CC(C)(C)O)cn2)n1 [Example 332, 1-(4-(2-(((3R,4S)-1-(Cyclopropylsulfonyl)-3-methylpiperidin-4-yl)amino)-5-(trifluoromethyl)pyrimidin-4-yl)-1H-imidazol-1-yl)-2-methylpropan-2-ol] | ≥ 7.30 |
| CN(C)C(=O)c1ccc(-n2cnc(-c3nc(NC4CCN(S(C)(=O)=O)CC4)ncc3C(F)(F)F)c2)c(Cl)c1F [Example 136, 3-Chloro-2-fluoro-N,N-dimethyl-4-(4-(2-((1-(methylsulfonyl)piperidin-4-yl)amino)-5-(trifluoromethyl)pyrimidin-4-yl)-1H-imidazol-1-yl)benzamide] | ≥ 7.30 |
| CN1CC(c2ccc(-n3cnc(-c4nc(NC5CCN(S(C)(=O)=O)CC5)ncc4C(F)(F)F)c3)c(Cl)c2)C1 [Example 440, 4-(1-(2-Chloro-4-(1-methylazetidin-3-yl)phenyl)-1H-imidazol-4-yl)-N-(1-(methylsulfonyl)piperidin-4-yl)-5-(trifluoromethyl)pyrimidin-2-amine] | ≥ 7.30 |
| O=S(=O)(NC1CC1)N1CCC(Nc2ncc(C(F)(F)F)c(-c3cn(-c4ccc(CN5CCC5)cc4Cl)cn3)n2)CC1 [Example 230, 4-((4-(1-(4-(Azetidin-1-ylmethyl)-2-chlorophenyl)-1H-imidazol-4-yl)-5-(trifluoromethyl)pyrimidin-2-yl)amino)-N-cyclopropylpiperidine-1-sulfonamide] | ≥ 7.30 |
| COc1ccc(-n2cnc(-c3nc(NC4CCN(S(C)(=O)=O)CC4)ncc3C(F)(F)F)c2)c(Cl)c1 [Example 151, 4-(1-(2-Chloro-4-methoxyphenyl)-1H-imidazol-4-yl)-N-(1-(methylsulfonyl)piperidin-4-yl)-5-(trifluoromethyl)pyrimidin-2-amine] | ≥ 7.30 |
| CC(C)NCc1ccc(-n2cnc(-c3nc(N[C@@H]4CCN(S(C)(=O)=O)C[C@H]4F)ncc3C(F)(F)F)c2)c(Cl)c1 [Example 400, 4-(1-(2-Chloro-4-((isopropylamino)methyl)phenyl)-1H-imidazol-4-yl)-N-((3R,4R)-3-fluoro-1-(methylsulfonyl)piperidin-4-yl)-5-(trifluoromethyl)pyrimidin-2-amine] | ≥ 7.30 |
| CS(=O)(=O)N1CCC(Nc2ncc(C(F)(F)F)c(-c3cn(-c4cccc(C#N)c4C(F)(F)F)cn3)n2)CC1 [Example 38, 3-(4-(2-((1-(Methylsulfonyl)piperidin-4-yl)amino)-5-(trifluoromethyl)pyrimidin-4-yl)-1H-imidazol-1-yl)-2-(trifluoromethyl)benzonitrile] | ≥ 7.30 |

Now from value to compound:

| pIC50 | SMILES |
| --- | --- |
| ≥ 7.30 | CS(=O)(=O)N1CCC(Nc2ncc(C(F)(F)F)c(-c3cn(-c4ccc(N5CCC(N6CCCC6)CC5)cc4Cl)cn3)n2)CC1 [Example 146, 4-(1-(2-Chloro-4-(4-(pyrrolidin-1-yl)piperidin-1-yl)-phenyl)-1H-imidazol-4-yl)-N-(1-(methylsulfonyl)-piperidin-4-yl)-5-(trifluoromethyl)-pyrimidin-2-amine] |
| ≥ 7.30 | CC(C)NCc1cccc(-n2cnc(-c3nc(NC4CCN(S(C)(=O)=O)CC4)ncc3C(F)(F)F)c2)c1Cl [Example 360, 4-(1-(2-Chloro-3-((isopropylamino)meth-yl)phenyl)-1H-imidazol-4-yl)-N-(1-(methylsulfonyl)piperidin-4-yl)-5-(trifluoromethyl)pyrimi-din-2-amine] |
| ≥ 7.30 | Cc1nc(-c2nc(NC3CCN(S(C)(=O)=O)CC3)ncc2C(F)(F)F)cn1-c1ccc(C#N)cc1F [Example 303, 3-Fluoro-4-(2-methyl-4-(2-((1-(methylsulfonyl)piperidin-4-yl)amino)-5-(trifluoromethyl)pyrimidin-4-yl)-1H-imidazol-1-yl)benzonitrile] |
| ≥ 7.30 | CC(=O)NCc1ccc(-n2cnc(-c3nc(NC4CCN(S(C)(=O)=O)CC4)ncc3C(F)(F)F)c2)c(Cl)c1 [Example 185, N-(3-Chloro-4-(4-(2-((1-(methylsulfonyl)piperidin-4-yl)amino)-5-(trifluoromethyl)pyrimidin-4-yl)-1H-imidazol-1-yl)benzyl)acetamide] |
| ≥ 7.30 | Cc1nc(-c2nc(N[C@H]3CCN(S(C)(=O)=O)C[C@H]3F)ncc2C(F)(F)F)cn1-c1ccc(CN2CCN(C)CC2)cc1F [Example 387, N-((3R,4S)-3-Fluoro-1-(methylsulfonyl)piperidin-4-yl)-4-(1-(2-fluoro-4-((4-methylpiperazin-1-yl)methyl)phenyl)-2-methyl-1H-imidazol-4-yl)-5-(trifluoromethyl)pyrimidin-2-amine] |
| ≥ 7.30 | CNCc1ccc(-n2cnc(-c3nc(NC4CCN(S(C)(=O)=O)CC4)ncc3C(F)(F)F)c2)c(C(F)F)n1 [Example 245, 4-(1-(2-(Difluoromethyl)-6-((methylamino)methyl)pyridin-3-yl)-1H-imidazol-4-yl)-N-(1-(methylsulfonyl)piperidin-4-yl)-5-(trifluoromethyl)pyrimidin-2-amine] |
| ≥ 7.30 | Cc1nc(-c2nc(NC3CCN(S(C)(=O)=O)CC3)ncc2C(F)(F)F)cn1-c1ccc(N2CCN[C@H](C)C2)cc1F [Example 115, (R)-4-(1-(2-Fluoro-4-(3-methyl-piperazin-1-yl)-phenyl)-2-methyl-1H-imidazol-4-yl)-N-(1-(methyl-sulfonyl)piperidin-4-yl)-5-(trifluoro-methyl)pyrimidin-2-amine] |
| ≥ 7.30 | C[C@@]1(O)CCN(Cc2cccc(-n3cnc(-c4nc(NC5CCN(S(C)(=O)=O)CC5)ncc4C(F)(F)F)c3)c2C(F)(F)F)C1 [Example 381, (R)-3-Methyl-1-(3-(4-(2-((1-(methylsulfonyl)piperidin-4-yl)amino)-5-(trifluoromethyl)pyrimi-din-4-yl)-1H-imidazol-1-yl)-2-(trifluoromethyl)benzyl) pyrrolidin-3-ol] |
| ≥ 7.30 | CS(=O)(=O)N1CC[C@@H](Nc2ncc(C(F)(F)F)c(-c3cn(-c4ccc(CN5CCC5)cc4Cl)cn3)n2)[C@H](F)C1 [Example 399, 4-(1-(4-(Azetidin-1-ylmethyl)-2-chlorophenyl)-1H-imidazol-4-yl)-N-((3R,4R)-3-fluoro-1-(methylsulfonyl)piperidin-4-yl)-5-(trifluoromethyl)pyrimidin-2-amine] |
| ≥ 7.30 | CNC1CCN(c2ccc(-n3cc(-c4nc(NC5CCN(S(C)(=O)=O)CC5)ncc4C(F)(F)F)nc3C)c(F)c2)CC1 [Example 107, 4-(1-(2-Fluoro-4-(4-(methylamino)-piperidin-1-yl)-phenyl)-2-methyl-1H-imidazol-4-yl)-N-(1-(methyl-sulfonyl)piperidin-4-yl)-5-(trifluoro-methyl)pyrimidin-2-amine] |
| ≥ 7.30 | CC(C)N1CC(c2ccc(-n3cnc(-c4nc(NC5CCN(S(C)(=O)=O)CC5)ncc4C(F)(F)F)c3)c(C#N)c2)C1 [Example 427, 5-(1-Isopropylazetidin-3-yl)-2-(4-(2-((1-(methylsulfonyl)piperidin-4-yl)amino)-5-(trifluoromethyl)pyrimidin-4-yl)-1H-imidazol-1-yl)benzonitrile] |
| ≥ 7.30 | CS(=O)(=O)N1CCC(Nc2ncc(C(F)(F)F)c(-c3cn(-c4ccc(CN5CCCCC5)cc4C#N)cn3)n2)CC1 [Example 345, 2-(4-(2-((1-(Methylsulfonyl)piperidin-4-yl)amino)-5-(trifluoromethyl)pyrimidin-4-yl)-1H-imidazol-1-yl)-5-(piperidin-1-ylmethyl)benzonitrile] |
| ≥ 7.30 | CN(C)Cc1ccc(-n2cnc(-c3nc(NC4CCN(S(C)(=O)=O)CC4)ncc3C(F)(F)F)c2)c(C(F)(F)F)c1 [Example 250, 4-(1-(4-((Dimethylamino)methyl)-2-(trifluoromethyl)phenyl)-1H-imidazol-4-yl)-N-(1-(methylsulfonyl)piperidin-4-yl)-5-(trifluoromethyl)pyrimidin-2-amine] |
| ≥ 7.30 | Cc1nc(-c2nc(NC3CCN(S(C)(=O)=O)CC3)ncc2C(F)(F)F)cn1-c1ccnc(C#N)c1F [Example 309, 3-Fluoro-4-(2-methyl-4-(2-((1-(methylsulfonyl)piperidin-4-yl)amino)-5-(trifluoromethyl)pyrimidin-4-yl)-1H-imidazol-1-yl)picolinonitrile] |
| ≥ 7.30 | CCNCc1cc(F)c(-n2cnc(-c3nc(NC4CCN(S(C)(=O)=O)CC4)ncc3C(F)(F)F)c2)c(Cl)c1 [Example 393, 4-(1-(2-Chloro-4-((ethylamino)methyl)-6-fluorophenyl)-1H-imdazol-4-yl)-N-(1-(methylsulfonyl)piperidin-4-yl)-5-(trifluoromethyl)pyrimidin-2-amine] |
| ≥ 7.30 | CS(=O)(=O)N1CC[C@H](Nc2ncc(C(F)(F)F)c(-c3cn(-c4ccccc4C#N)cn3)n2)[C@H](F)C1 [Example 472, 2-(4-(2-(((3R,4S)-3-Fluoro-1-(methylsulfonyl)piperidin-4-yl)amino)-5-(trifluoromethyl)pyrimidin-4-yl)-1H-imidazol-1-yl)benzonitrile] |
